Source: patent publication US8778923B2, “GLP-1 receptor modulators” (Receptos, Inc., priority 2011, dated 2014)

molecular target: T1, GLP-1R (Homo sapiens, UniProt P43220); experiment: EC20 GLP-1(9-36) PAM cAMP assay: dose response of compound in the presence of fixed concentration of GLP-1(9-36); format: cell-based; details: GLP-1R CRE-bla CHO-K1 cells, compound dose response in presence of fixed concentration of GLP-1(9-36)
T1 construct: host or cells: CRE-bla CHO-K1
Protocol: EC20 GLP-1(9-36) PAM cAMP Assay: Dose Response of Compound in the Presence of Fixed Concentration of GLP-1 (9-36).
GLP-1R CRE-bla CHO-K1 cells cultured in growth medium (DMEM-High glucose, 10% dialyzed FBS, 0.1 mM NEAA, 25 mM Hepes, 100 U/mL penicillin/100 μg/mL streptomycin, 5 μg/mL Blasticidin, 600 μg/mL Hygromycin) were tryspsinized and plated in suspension into 384 well white flat bottom plates at 5000 cells/well in 12 μL assay buffer (Hanks Balanced Salt solution, 10 mM Hepes, 0.1% BSA, pH 7.4). A 5× compound dose response curve (12-point) was generated in assay buffer containing 1.5 mM IBMX, 12.5% DMSO. GLP-1(9-36) was diluted to 4.2 μM in assay buffer containing 1.5 mM IBMX and 12.5% DMSO. The 5× compound dose response was added (3 μL), followed by 0.5 μL of GLP-1(9-36) and cells were incubated for 30 min at 37° C. Direct detection of cAMP was carried out using DiscoveRx HitHunter cAMP kit according to manufacturer's instructions and luminescence was read using a SpectraMax M5 plate reader. Luminescence was converted to total cAMP using a cAMP standard curve and data was analyzed by non-linear regression to determine the EC50 and Emax.
GLP-1(7-36): […]-NH2. GLP-1(9-36): […]-NH2. GLP-1(7-36) was purchased from GenScript. GLP-1(9-36) was purchased from Biopeptide Co., Inc.

T1 sequence (P43220 24-463): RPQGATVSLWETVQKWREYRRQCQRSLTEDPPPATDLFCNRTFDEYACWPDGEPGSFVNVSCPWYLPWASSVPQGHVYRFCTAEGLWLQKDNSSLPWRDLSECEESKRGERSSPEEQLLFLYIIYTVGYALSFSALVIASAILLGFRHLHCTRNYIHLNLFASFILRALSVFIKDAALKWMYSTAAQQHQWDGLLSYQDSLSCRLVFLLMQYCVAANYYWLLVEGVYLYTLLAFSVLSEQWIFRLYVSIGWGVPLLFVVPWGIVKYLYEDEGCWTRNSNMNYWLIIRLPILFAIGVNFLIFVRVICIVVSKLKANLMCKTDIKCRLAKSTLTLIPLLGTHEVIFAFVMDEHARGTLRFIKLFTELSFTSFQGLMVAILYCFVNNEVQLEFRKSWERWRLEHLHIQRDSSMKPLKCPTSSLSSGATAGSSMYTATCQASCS
T1 sequence (P01275 100-127 partner limits assumed): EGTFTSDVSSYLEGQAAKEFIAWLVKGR

Row | SMILES | EC50 [nM]
1 | CC(C)(C)Oc1ccc(-c2nc(-c3ccc(C[C@H](NC(=O)c4ccc(C(C)(C)C)cc4)C(=O)O)cc3)no2)cc1 [Compound 56] | 2500 to 5000
2 | Cc1cc(C)cc(-c2nc(-c3ccc(C[C@H](NC(=O)c4ccc(C(C)(C)C)cc4)C(=O)O)cc3)no2)c1 [Compound 57] | 2500 to 5000
3 | Cc1ccc(-c2nc(-c3ccc(C[C@H](NC(=O)c4ccc(C(C)(C)C)cc4)C(=O)O)cc3)no2)cc1C [Compound 58] | 2500 to 5000
4 | CC(C)Sc1ccc(-c2nc(-c3ccc(C[C@H](NC(=O)c4ccc(C(C)(C)C)cc4)C(=O)O)cc3)no2)cc1 [Compound 59] | 2500 to 5000
5 | CC(C)(C)c1ccc(C(=O)N[C@@H](Cc2ccc(-c3noc(-c4ccc5ccccc5c4)n3)cc2)C(=O)O)cc1 [Compound 60] | 2500 to 5000
6 | CC(C)(C)c1ccc(C(=O)N[C@@H](Cc2ccc(-c3noc(-c4ccc(C(N)=O)cc4)n3)cc2)C(=O)O)cc1 [Compound 61] | 2500 to 5000
7 | CC(C)(C)c1ccc(C(=O)N[C@@H](Cc2ccc(-c3noc(-c4ccc(N)cc4)n3)cc2)C(=O)O)cc1 [Compound 62] | 2500 to 5000
8 | CC(C)Nc1ccc(-c2nc(-c3ccc(C[C@H](NC(=O)c4ccc(C(C)(C)C)cc4)C(=O)O)cc3)no2)cc1 [Compound 65] | 2500 to 5000
9 | CC(C)(C)c1ccc(C(=O)N[C@@H](Cc2ccc(-c3noc(-c4cccc5c4CCNC5)n3)cc2)C(=O)O)cc1 [Compound 66] | 2500 to 5000
10 | CC(C)(C)c1ccc(C(=O)N[C@@H](Cc2ccc(-c3noc(-c4ccc(N5CCCCC5)cc4)n3)cc2)C(=O)NCC(=O)O)cc1 [Compound 68] | 2500 to 5000
11 | CCCCCCCOc1ccc(-c2nc(-c3ccc(C[C@H](NC(=O)c4ccc(C(C)(C)C)cc4)C(=O)NS(C)(=O)=O)cc3)no2)cc1 [Compound 69] | 5000 to 10000
12 | CCCCCCCOc1ccc(-c2nc(-c3ccc(C[C@H](NC(=O)c4ccc(C(C)(C)C)cc4)C(=O)NC(C)(C)C(=O)O)cc3)no2)cc1 [Compound 70] | 5000 to 10000
13 | CCCCCCCOc1ccc(-c2nc(-c3ccc(C(NC(=O)c4ccc(C(C)(C)C)cc4)C(=O)O)cc3)no2)cc1 (stereo not drawn) [Compound 71] | 2500 to 5000
14 | CC(C)(C)c1ccc(C(=O)NC(C(=O)O)c2ccc(-c3noc(-c4ccc(N5CCCCC5)cc4)n3)cc2)cc1 (stereo not drawn) [Compound 72] | 5000 to 10000
15 | CC(C)(C)c1ccc(C(=O)N[C@@H](CCc2ccc(-c3noc(-c4ccc(N5CCCCC5)cc4)n3)cc2)C(=O)O)cc1 [Compound 74] | 2500 to 5000
16 | CC(C)(C)c1ccc(C(=O)N[C@H](CC(=O)O)Cc2ccc(-c3noc(-c4ccc(N5CCCCC5)cc4)n3)cc2)cc1 [Compound 75] | 2500 to 5000
17 | CCCCCCCOc1ccc(-c2cnc(-c3ccc(CC(NC(=O)c4ccc(C(C)(C)C)cc4)C(=O)O)cc3)s2)cc1 (stereo not drawn) [Compound 81] | 5000 to 10000
18 | CCCCCCCOc1ccc(-c2cnc(-c3ccc(C[C@H](NC(=O)Cc4ccccc4)C(=O)O)cc3)nc2)cc1 [Compound 88] | 5000 to 10000

Row | SMILES | EC50 [nM]
19 | CCCCCCCOc1ccc(-c2cnc(-c3ccc(C[C@H](NC(=O)c4ccc(N5CCCC5)cc4)C(=O)O)cc3)nc2)cc1 [Compound 90] | 2500 to 5000
20 | CCCCCCCOc1ccc(-c2cnc(-c3ccc(C[C@H](NC(=O)c4ccc(C(F)(F)F)cc4)C(=O)O)cc3)nc2)cc1 [Compound 93] | 5000 to 10000
21 | CCCCCCCOc1ccc(-c2cnc(-c3ccc(C[C@H](NC(=O)c4ccc(C(C)C)cc4)C(=O)O)cc3)nc2)cc1 [Compound 94, (S)-3-(4-(5-(4-(heptyloxy)phenyl)pyrimidin-2-yl)phenyl)-2-(4-isopropylbenzamido)propanoic acid] | 800 to 2500
22 | CCCCCCCOc1ccc(-c2cnc(-c3ccc(C[C@H](NC(=O)c4cccc(C(C)C)c4)C(=O)O)cc3)nc2)cc1 [Compound 95] | 800 to 2500
23 | CCCCCCCOc1ccc(-c2cnc(-c3ccc(C[C@H](NC(=O)c4ccc(N(C)C)cc4)C(=O)O)cc3)nc2)cc1 [Compound 96] | 2500 to 5000
24 | CCCCCCCOc1ccc(-c2cnc(-c3ccc(C[C@H](NC(=O)c4ccc(OC(C)C)cc4)C(=O)O)cc3)nc2)cc1 [Compound 97] | 800 to 2500
25 | CCCCCCCOc1ccc(-c2cnc(-c3ccc(C[C@H](NC(=O)c4ccc(C#N)cc4)C(=O)O)cc3)nc2)cc1 [Compound 98] | 800 to 2500
26 | CCCCCCCOc1ccc(-c2cnc(-c3ccc(C[C@H](NC(=O)c4ccc(S(C)(=O)=O)cc4)C(=O)O)cc3)nc2)cc1 [Compound 99] | 800 to 2500
27 | CCCCCCCOc1ccc(-c2cnc(-c3ccc(C[C@H](NC(=O)c4ccc(CC(C)C)cc4)C(=O)O)cc3)nc2)cc1 [Compound 100] | 800 to 2500
28 | CCCCCCCOc1ccc(-c2cnc(-c3ccc(C[C@H](NC(=O)c4ccc(CCC)cc4)C(=O)O)cc3)nc2)cc1 [Compound 101] | 800 to 2500
29 | CCCCCCCOc1ccc(-c2cnc(-c3ccc(C[C@H](NC(=O)c4ccc(N)cc4)C(=O)O)cc3)nc2)cc1 [Compound 102] | 800 to 2500
30 | CCCCCCCOc1ccc(-c2cnc(-c3ccc(C[C@H](NC(=O)c4cccc(N)c4)C(=O)O)cc3)nc2)cc1 [Compound 104] | 800 to 2500
31 | CCCCCCCOc1ccc(-c2cnc(-c3ccc(C[C@H](NC(=O)c4cccc(C#N)c4)C(=O)O)cc3)nc2)cc1 [Compound 105] | 5000 to 10000
32 | CCCCCCCOc1ccc(-c2cnc(-c3ccc(C[C@H](NC(=O)c4ccc(C(C)(C)C)cc4OC)C(=O)O)cc3)nc2)cc1 [Compound 106] | 800 to 2500
33 | CCCCCCCOc1ccc(-c2cnc(-c3ccc(C[C@H](NC(=O)c4ccc(CCCC)cc4)C(=O)O)cc3)nc2)cc1 [Compound 107] | 800 to 2500
34 | CCCCCCCOc1ccc(-c2cnc(-c3ccc(C[C@H](NC(=O)c4ccc(OCC)cc4)C(=O)O)cc3)nc2)cc1 [Compound 108] | 800 to 2500
35 | CCCCCCCOc1ccc(-c2cnc(-c3ccc(C[C@H](NC(=O)c4ccc(OC)cc4F)C(=O)O)cc3)nc2)cc1 [Compound 109] | 800 to 2500
36 | CCCCCCCOc1ccc(-c2cnc(-c3ccc(C[C@H](NC(=O)c4ccc(C)cc4)C(=O)O)cc3)nc2)cc1 [Compound 110] | 800 to 2500

Results, then the molecule that gave them:

Row | EC50 [nM] | SMILES
37 | 800 to 2500 | CNc1ccc(-c2nc(-c3ccc(C[C@H](NC(=O)c4ccc(C(C)(C)C)cc4)C(=O)O)cc3)no2)cc1 [Compound 63]
38 | 800 to 2500 | CC(C)(C)c1ccc(C(=O)N[C@@H](Cc2ccc(-c3noc(-c4ccc5[nH]ccc5c4)n3)cc2)C(=O)O)cc1 [Compound 64]
39 | 800 to 2500 | CCCCCCCOc1ccc(-c2nc(-c3ccc(C[C@H](NC(=O)c4ccc(C(C)(C)C)cc4)C(=O)NCC(=O)O)cc3)no2)cc1 [Compound 67, (S)-2-(2-(4-(tert-butyl)benzamido)-3-(4-(5-(4-(heptyloxy)phenyl)-1,2,4-oxadiazol-3-yl)phenyl)propanamido)acetic acid]
40 | 800 to 2500 | CCCCCCCOc1ccc(-c2nc(-c3ccc(CC[C@H](NC(=O)c4ccc(C(C)(C)C)cc4)C(=O)O)cc3)no2)cc1 [Compound 73]
41 | 800 to 2500 | CCCCCCCOc1ccc(-c2nnc(-c3ccc(C[C@H](NC(=O)c4ccc(C(C)(C)C)cc4)C(=O)O)cc3)o2)cc1 [Compound 76]
42 | 800 to 2500 | CCCCCCCOc1ccc(-c2coc(-c3ccc(C[C@H](NC(=O)c4ccc(C(C)(C)C)cc4)C(=O)O)cc3)n2)cc1 [Compound 77]
43 | 800 to 2500 | CCCCCCCOc1ccc(-c2nc(-c3ccc(C[C@H](NC(=O)c4ccc(C(C)(C)C)cc4)C(=O)O)cc3)co2)cc1 [Compound 78]
44 | 800 to 2500 | CCCCCCCOc1ccc(-c2csc(-c3ccc(C[C@H](NC(=O)c4ccc(C(C)(C)C)cc4)C(=O)O)cc3)n2)cc1 [Compound 79]
45 | 800 to 2500 | CCCCCCCOc1ccc(-c2nc(-c3ccc(C[C@H](NC(=O)c4ccc(C(C)(C)C)cc4)C(=O)O)cc3)cs2)cc1 [Compound 80]
46 | 800 to 2500 | CCCCCCCOc1ccc(-c2ncc(-c3ccc(CC(NC(=O)c4ccc(C(C)(C)C)cc4)C(=O)O)cc3)s2)cc1 (stereo not drawn) [Compound 82]
47 | 800 to 2500 | CCCCCCCOc1ccc(-c2nnc(-c3ccc(C[C@H](NC(=O)c4ccc(C(C)(C)C)cc4)C(=O)O)cc3)s2)cc1 [Compound 83]
48 | 800 to 2500 | CCCCCCCOc1ccc(-c2nc(-c3ccc(C[C@H](NC(=O)c4ccc(C(C)(C)C)cc4)C(=O)O)cc3)ns2)cc1 [Compound 84]
49 | 800 to 2500 | CCCCCCCOc1ccc(-c2cnc(-c3ccc(C[C@H](NC(=O)c4ccc(C(C)(C)C)cc4)C(=O)O)cc3)nc2)cc1 [Compound 85, (S)-2-(4-(tert-butyl)benzamido)-3-(4-(5-(4-(heptyloxy)phenyl)pyrimidin-2-yl)phenyl)propanoic acid]
50 | 800 to 2500 | CCCCCCCOc1ccc(-c2cnc(-c3ccc(C[C@H](NC(=O)c4ccc(OC)cc4)C(=O)O)cc3)nc2)cc1 [Compound 86]
51 | 800 to 2500 | CCCCCCCOc1ccc(-c2cnc(-c3ccc(C[C@H](NC(=O)c4ccc(Cl)cc4)C(=O)O)cc3)nc2)cc1 [Compound 87]
52 | 800 to 2500 | CCCCCCCOc1ccc(-c2cnc(-c3ccc(C[C@H](NC(=O)c4ccc(CC)cc4)C(=O)O)cc3)nc2)cc1 [Compound 89]
53 | 800 to 2500 | CCCCCCCOc1ccc(-c2cnc(-c3ccc(C[C@H](NC(=O)c4ccc(-c5ccccc5)cc4)C(=O)O)cc3)nc2)cc1 [Compound 91]
54 | 800 to 2500 | CCCCCCCOc1ccc(-c2cnc(-c3ccc(C[C@H](NC(=O)c4cccc(N5CCCC5)c4)C(=O)O)cc3)nc2)cc1 [Compound 92]
